Laboratory results: ChEMBL document CHEMBL5050844 (2019)

Tests used:
[1] = biological target: E3 ubiquitin-protein ligase CBL-B (Homo sapiens, UniProt Q13191); experiment: Inhibition of N-terminal Avi-tagged human CBL-B (36 to 427 residues) incubated with 60 nM Src kinase for 1.5 hrs followed by incubation with fluorescently labeled UbcH5B-Ub for 1 hr and measured by TR-FRET assay; assay type: single protein
[2] = Induction of anti-CD3/CD28 antibodies-stimulated human T cell activation at 1 uM assessed fold increase in IL-2 secretion measured by ELISA assay; assay type: functional, T cell line
[3] = Induction of anti-CD3/CD28 antibodies-stimulated human T cell activation at 0.3 uM assessed fold increase in IL-2 secretion measured by ELISA assay; assay type: functional, T cell line
[4] = Induction of anti-CD3 antibodies-stimulated human T cell activation at 1 uM assessed fold increase in IL-2 secretion measured by ELISA assay; assay type: functional, T cell line; also: reference of the scale not given here
[5] = Induction of anti-CD3/CD28 antibodies-stimulated human T cell activation at 1 uM assessed fold increase in CD25 expression measured by ELISA assay; assay type: functional, T cell line
[6] = Induction of anti-CD3/CD28 antibodies-stimulated human T cell activation at 0.3 uM assessed fold increase in CD25 expression measured by ELISA assay; assay type: functional, T cell line
[7] = Induction of anti-CD3 antibodies-stimulated human T cell activation at 1 uM assessed fold increase in CD25 expression measured by ELISA assay; assay type: functional, T cell line; also: reference of the scale not given here

Chain of E3 ubiquitin-protein ligase CBL-B (Q13191 whole entry, the tested form may be a part): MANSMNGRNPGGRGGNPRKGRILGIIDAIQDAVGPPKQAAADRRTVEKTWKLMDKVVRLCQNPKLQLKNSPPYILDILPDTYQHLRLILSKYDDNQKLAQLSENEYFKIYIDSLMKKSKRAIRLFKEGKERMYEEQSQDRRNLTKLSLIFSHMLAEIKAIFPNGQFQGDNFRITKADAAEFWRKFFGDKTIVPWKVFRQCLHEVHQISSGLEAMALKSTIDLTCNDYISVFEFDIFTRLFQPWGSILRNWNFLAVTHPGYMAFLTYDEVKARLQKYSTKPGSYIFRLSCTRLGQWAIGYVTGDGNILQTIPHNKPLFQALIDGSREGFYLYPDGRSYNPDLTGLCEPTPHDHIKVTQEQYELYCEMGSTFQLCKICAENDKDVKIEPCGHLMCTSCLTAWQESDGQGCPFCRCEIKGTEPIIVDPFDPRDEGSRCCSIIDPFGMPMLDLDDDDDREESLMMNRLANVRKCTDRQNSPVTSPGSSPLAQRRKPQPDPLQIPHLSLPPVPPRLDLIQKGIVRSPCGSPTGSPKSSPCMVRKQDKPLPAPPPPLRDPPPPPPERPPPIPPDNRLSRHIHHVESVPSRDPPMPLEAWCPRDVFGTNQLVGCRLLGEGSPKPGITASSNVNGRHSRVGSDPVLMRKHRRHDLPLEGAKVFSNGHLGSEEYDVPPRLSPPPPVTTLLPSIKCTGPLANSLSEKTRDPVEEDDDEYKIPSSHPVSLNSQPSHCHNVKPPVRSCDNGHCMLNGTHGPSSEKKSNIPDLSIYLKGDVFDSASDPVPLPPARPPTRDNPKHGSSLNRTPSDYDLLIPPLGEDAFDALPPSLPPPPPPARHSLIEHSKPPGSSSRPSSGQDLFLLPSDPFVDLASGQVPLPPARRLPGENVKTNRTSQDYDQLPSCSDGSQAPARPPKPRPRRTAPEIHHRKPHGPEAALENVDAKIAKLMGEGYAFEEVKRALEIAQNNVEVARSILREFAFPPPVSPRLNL

Structure (SMILES): Cc1cc(C(=O)Nc2cccc(C3(Cc4nncn4C)CC(F)(F)C3)c2)nc(C2CC2)n1
- IC50 [1]: < 100 nM
- fold change (FC) [2]: >=7.5
- fold change (FC) [3]: 5
- fold change (FC) [4]: >=0.201
- fold change (FC) [5]: 1.01
- fold change (FC) [6]: 1.01
- fold change (FC) [7]: >=1.001

Structure (SMILES): Cn1cnnc1CC1(c2cccc(N3Cc4c(cc(CN5CC[C@H]6C[C@H]65)cc4C(F)(F)F)C3=O)c2)COC1
- IC50 [1]: < 100 nM
- fold change (FC) [2]: >=7.5
- fold change (FC) [3]: >=7.5
- fold change (FC) [4]: >=0.201
- fold change (FC) [5]: 1.51
- fold change (FC) [6]: 1.51
- fold change (FC) [7]: >=1.001

Structure (SMILES): C[C@@H](c1cc2c(c(C(F)(F)F)c1)CN(c1cccc(C3(C(F)(F)c4nncn4C)COC3)c1)C2=O)N1CC[C@H](F)C1
- IC50 [1]: < 100 nM
- fold change (FC) [2]: >=7.5
- fold change (FC) [3]: 2.51
- fold change (FC) [4]: >=0.201
- fold change (FC) [5]: 1.51
- fold change (FC) [6]: 1.31
- fold change (FC) [7]: >=1.001

Structure (SMILES): Cn1cnnc1CC1(c2cccc(N3Cc4c(cc(CN5CCC(C)(F)C5)cc4C(F)(F)F)C3=O)c2)COC1 (stereo not drawn)
- IC50 [1]: < 100 nM
- fold change (FC) [2]: >=7.5
- fold change (FC) [3]: >=7.5
- fold change (FC) [4]: >=0.201
- fold change (FC) [5]: 1.31
- fold change (FC) [6]: 1.31
- fold change (FC) [7]: >=1.001

Structure (SMILES): Cn1cnnc1[C@H](F)C1(c2cccc(N3Cc4c(cc(CN5C6CCCC5CC6)cc4C(F)(F)F)C3=O)c2)COC1 (stereo in doubt; 671b)
- IC50 [1]: < 100 nM
- fold change (FC) [2]: >=7.5
- fold change (FC) [3]: >=7.5
- fold change (FC) [4]: >=0.201
- fold change (FC) ([5]; 1 µM): >=1.76
- fold change (FC) ([6]; 0.3 µM): >=1.76
- fold change (FC) [7]: >=1.001

Structure (SMILES): Cn1cnnc1CC1(c2cccc(N3Cc4c(cc(C5=CCCOC5)cc4C(F)(F)F)C3=O)c2)COC1
- IC50 [1]: < 100 nM
- FC [2]: 2.51
- FC [3]: 2.51
- FC [4]: 0.101
- FC [5]: 1.01
- FC [6]: 1.01
- FC [7]: 0.801

Structure (SMILES): CN1CCN(c2cc3c(c(C(F)(F)F)c2)CN(c2cccc(C4(Cc5nncn5C)COC4)c2)C3=O)C(=O)C1
- IC50 [1]: < 100 nM
- fold change (FC) [2]: 1.01
- fold change (FC) [3]: 1.01
- fold change (FC) [4]: 0.051
- fold change (FC) [5]: 1.01
- fold change (FC) [6]: 1.01
- fold change (FC) [7]: 0.801

Structure (SMILES): Cn1cnnc1CC1(c2cccc(NC(=O)c3cc(CN4CC[C@H](O)C4)nc(C4CC4)n3)c2)COC1
- IC50 [1]: < 100 nM
- fold change (FC) [2]: 2.51
- fold change (FC) [3]: 1.01
- fold change (FC) [4]: 0.051
- fold change (FC) [5]: 1.01
- fold change (FC) [6]: 1.01
- fold change (FC) [7]: 0.601

Structure (SMILES): Cn1cnnc1CC1(c2cccc(N3Cc4c(ccnc4C(F)(F)F)C3=O)c2)COC1
- IC50 [1]: < 100 nM
- fold change (FC) [2]: 1.01
- fold change (FC) [3]: 1.01
- fold change (FC) [4]: <=0.05
- fold change (FC) [5]: 1.01
- fold change (FC) [6]: 1.01
- fold change (FC) [7]: 0.601

Structure (SMILES): Cn1cnnc1[C@H](F)C1(c2cccc(N3Cc4c(cc(CN5CCCCC5)cc4C(F)(F)F)C3=O)c2)COC1
- IC50 [1]: < 100 nM
- fold change (FC) [2]: >=7.5
- fold change (FC) [3]: >=7.5
- fold change (FC) [4]: >=0.201
- fold change (FC) [5]: 1.01
- fold change (FC) [6]: 1.01
- fold change (FC) [7]: >=1.001

Structure (SMILES): CC(c1cc2c(c(C3CC3)n1)CN(c1cccc(C3(Cc4nncn4C)COC3)c1)C2=O)N1CC2(CC2)C1 (stereo not drawn)
- IC50 [1]: < 100 nM
- fold change (FC) [2]: 2.51
- fold change (FC) [3]: 1.01
- fold change (FC) [4]: <=0.05
- fold change (FC) [5]: 1.01
- fold change (FC) [6]: 1.01
- fold change (FC) [7]: 0.601

Structure (SMILES): CC1CN(c2cc3c(c(C(F)(F)F)c2)CN(c2cccc(C4(Cc5nncn5C)COC4)c2)C3=O)C1C (stereo not drawn)
- IC50 [1]: < 100 nM
- fold change (FC) [2]: 2.51
- fold change (FC) [3]: 1.01
- fold change (FC) [4]: 0.051
- fold change (FC) [5]: 1.01
- fold change (FC) [6]: 1.01
- fold change (FC) [7]: 0.601

Structure (SMILES): C[C@@H]1CCN(Cc2cc3c(c(C(F)(F)F)c2)CN(c2cccc(C4(Cc5nncn5C)COC4)c2)C3=O)C[C@H]1F (relative stereo)
- IC50 [1]: < 100 nM
- fold change (FC) [2]: >=7.5
- fold change (FC) [3]: >=7.5
- fold change (FC) [4]: >=0.201
- fold change (FC) [5]: 1.51
- fold change (FC) [6]: 1.31
- fold change (FC) [7]: >=1.001

Structure (SMILES): Cn1cnnc1CC1(c2cccc(N3Cc4c(cc(C5CN6CCC5CC6)cc4C(F)(F)F)C3=O)c2)COC1 (stereo not drawn)
- IC50 [1]: < 100 nM
- fold change (FC) [2]: 5
- fold change (FC) [3]: 2.51
- fold change (FC) [4]: <=0.05
- fold change (FC) [5]: 1.01
- fold change (FC) [6]: 1.01
- fold change (FC) [7]: 0.601

Structure (SMILES): Cn1cnnc1CC1(c2cccc(N3Cc4c(cc(N5CC6(C5)CC(F)(F)C6)cc4C(F)(F)F)C3=O)c2)COC1
- IC50 [1]: < 100 nM
- fold change (FC) [2]: >=7.5
- fold change (FC) [3]: 5
- fold change (FC) [4]: 0.101
- fold change (FC) [5]: 1.31
- fold change (FC) [6]: 1.01
- fold change (FC) [7]: >=1.001

Structure (SMILES): Cc1cc(C(=O)Nc2cccc(C(C)(C)Cc3nncn3C)c2)nc(C2CC2)n1
- IC50 [1]: < 100 nM
- fold change (FC) [2]: >=7.5
- fold change (FC) [3]: 5
- fold change (FC) [4]: 0.101
- fold change (FC) [5]: 1.31
- fold change (FC) [6]: 1.31
- fold change (FC) [7]: 0.801

Structure (SMILES): Cn1cnnc1CC1(c2cccc(N3Cc4c(cccc4C(F)(F)F)C3=O)c2)CC(F)(F)C1
- IC50 [1]: < 100 nM
- fold change (FC) [2]: 5
- fold change (FC) [3]: 2.51
- fold change (FC) [4]: >=0.201
- fold change (FC) [5]: 1.01
- fold change (FC) [6]: 1.01
- fold change (FC) [7]: >=1.001

Structure (SMILES): Cn1cnnc1CC1(c2cccc(NC(=O)c3cc(CN4CCC5CC54)cc(C4CC4)n3)c2)COC1 (stereo not drawn)
- IC50 [1]: < 100 nM
- fold change (FC) [2]: >=7.5
- fold change (FC) [3]: >=7.5
- fold change (FC) [4]: >=0.201
- fold change (FC) [5]: 1.31
- fold change (FC) [6]: 1.31
- fold change (FC) [7]: >=1.001

Structure (SMILES): CC1CN(c2cc3c(c(C(F)(F)F)c2)CN(c2cccc(C4(Cc5nncn5C)COC4)c2)C3=O)C1
- IC50 [1]: < 100 nM
- fold change (FC) [2]: 2.51
- fold change (FC) [3]: 1.01
- fold change (FC) [4]: 0.101
- fold change (FC) [5]: 1.01
- fold change (FC) [6]: 1.01
- fold change (FC) [7]: 0.601

Structure (SMILES): CCOc1cc(N2Cc3c(cc([C@H](C)N4CC[C@H](F)C4)cc3C(F)(F)F)C2=O)cc(C2(Cc3nncn3C)COC2)c1
- IC50 [1]: < 100 nM
- fold change (FC) [2]: >=7.5
- fold change (FC) [3]: 2.51
- fold change (FC) [4]: 0.151
- fold change (FC) [5]: 1.51
- fold change (FC) [6]: 1.31
- fold change (FC) [7]: >=1.001

Structure (SMILES): Cn1cnnc1CC1(c2cccc(NC(=O)c3cc(C4CC4)nc4ccnn34)c2)COC1
- IC50 [1]: < 100 nM
- fold change (FC) [2]: 2.51
- fold change (FC) [3]: 1.01
- fold change (FC) [4]: <=0.05
- fold change (FC) [5]: 1.01
- fold change (FC) [6]: 1.01
- fold change (FC) [7]: 0.601

Structure (SMILES): Cn1cnnc1CC1(c2cccc(NC(=O)c3cc(CN4CCCCC4)nc(C4CC4)n3)c2)COC1
- IC50 [1]: < 100 nM
- fold change (FC) [2]: >=7.5
- fold change (FC) [3]: >=7.5
- fold change (FC) [4]: >=0.201
- fold change (FC) [5]: >=1.76
- fold change (FC) [6]: >=1.76
- fold change (FC) [7]: >=1.001

Structure (SMILES): Cn1cnnc1C(F)(F)[C@](C)(F)c1cccc(NC(=O)c2cc(CN3CC[C@H](F)C3)nc(C3CC3)n2)c1
- IC50 [1]: < 100 nM
- fold change (FC) [2]: 5
- fold change (FC) [3]: 2.51
- fold change (FC) [4]: 0.051
- fold change (FC) [5]: 1.01
- fold change (FC) [6]: 1.01
- fold change (FC) [7]: 0.801

Structure (SMILES): C[C@H]1CN(C)CCN1c1cc2c(c(C(F)(F)F)c1)CN(c1cccc(C3(Cc4nncn4C)COC3)c1)C2=O
- IC50 [1]: < 100 nM
- fold change (FC) [2]: >=7.5
- fold change (FC) [3]: 5
- fold change (FC) [4]: >=0.201
- fold change (FC) [5]: 1.31
- fold change (FC) [6]: 1.01
- fold change (FC) [7]: >=1.001

Structure (SMILES): Cn1cnnc1CC1(c2cccc(N3Cc4c(cc(CN5CCc6ccccc6C5)cc4C(F)(F)F)C3=O)c2)COC1
- IC50 [1]: < 100 nM
- fold change (FC) [2]: >=7.5
- fold change (FC) [3]: 5
- fold change (FC) [4]: >=0.201
- fold change (FC) [5]: 1.31
- fold change (FC) [6]: 1.01
- fold change (FC) [7]: >=1.001

Structure (SMILES): Cc1c[nH]nc1-c1cc([C@H](C)Cc2nncn2C)cc(N2Cc3c(cccc3C(F)(F)F)C2=O)n1
- IC50 [1]: ≤ 300 nM
- fold change (FC) [2]: 1.01
- fold change (FC) [3]: 1.01
- fold change (FC) [4]: 0.051
- fold change (FC) [5]: 1.01
- fold change (FC) [6]: 1.01
- fold change (FC) [7]: <=0.6

Structure (SMILES): COc1cccc2c1CN(Cc1cc3c(c(C(F)(F)F)c1)CN(c1cccc(C4(Cc5nncn5C)COC4)c1)C3=O)C2
- IC50 [1]: < 100 nM
- fold change (FC) [2]: >=7.5
- fold change (FC) [3]: 5
- fold change (FC) [4]: >=0.201
- fold change (FC) [5]: 1.51
- fold change (FC) [6]: 1.51
- fold change (FC) [7]: >=1.001

Structure (SMILES): CCOc1cc(N2Cc3c(cc(CN4CC[C@H](F)C4)cc3C(F)(F)F)C2=O)cc(C2(Cc3nncn3C)COC2)c1
- IC50 [1]: < 100 nM
- fold change (FC) [2]: >=7.5
- fold change (FC) [3]: 5
- fold change (FC) [4]: >=0.201
- fold change (FC) [5]: 1.31
- fold change (FC) [6]: 1.31
- fold change (FC) [7]: >=1.001

Structure (SMILES): Cn1cnnc1C(F)(F)C1(c2cccc(N3Cc4c(cc(CN5CC[C@H](F)C5)cc4C(F)(F)F)C3=O)c2)CC1
- IC50 [1]: < 100 nM
- fold change (FC) [2]: >=7.5
- fold change (FC) [3]: 5
- fold change (FC) [4]: >=0.201
- fold change (FC) [5]: 1.31
- fold change (FC) [6]: 1.01
- fold change (FC) [7]: >=1.001
